# Laboratory results taken from patent US7514582B2, “2′-substituted 1,1′-biphenyl-2-carboxamides, processes for their preparation, their use as medicaments, and pharmaceutical preparations comprising them” (Sanofi-Aventis Deutschland GmbH, priority 1999, dated 2009).
# Biological target: T1, Kv1.5 channels from humans (Homo sapiens, UniProt P22460)
# T1 construct: expressed in transfected cells; host or cells: Xenopus laevis oocytes injected with in vitro synthesized RNA
# Assay: Kv1.5 currents in Xenopus oocytes, two-microelectrode voltage clamp
# Assay type: cell-based
# Method: Kv1.5 channels from humans were expressed in Xenopus oocytes. For this, oocytes from Xenopus laevis were first isolated and defolliculated. RNA encoding Kv1.5 synthesized in vitro was then injected into these oocytes. After Kv1.5 protein expression for 1-7days, Kv1.5 currents were measured on the oocytes using the two-microelectrode voltage clamp technique. The Kv1.5 channels were in this case as a rule activated using voltage jumps to 0 mV and 40 mV lasting 500 ms. The bath was rinsed with a solution of the following composition: NaCl 96 mM, KCl 2 mM, CaCl2 1.8 mM, MgCl2 1 mM, HEPES 5 mM (titrated with NaOH to pH 7.4). These experiments were carried out at room temperature. The following were employed for data acquisition and analysis: Genedamp amplifier (Axon Instruments, Foster City, USA) and MacLab D/A converter and software (AD Instruments, Castle Hill, Australia). The substances according to the invention were tested by adding them in different concentrations to the bath solution. The effects of the substances were calculated as the percentage inhibition of the Kv1.5 control current which was obtained when no substance was added to the solution. The data were then extrapolated using the Hill equation in order to determine the inhibitory concentration IC50 for the respective substances.
# T1 sequence (P22460 whole entry): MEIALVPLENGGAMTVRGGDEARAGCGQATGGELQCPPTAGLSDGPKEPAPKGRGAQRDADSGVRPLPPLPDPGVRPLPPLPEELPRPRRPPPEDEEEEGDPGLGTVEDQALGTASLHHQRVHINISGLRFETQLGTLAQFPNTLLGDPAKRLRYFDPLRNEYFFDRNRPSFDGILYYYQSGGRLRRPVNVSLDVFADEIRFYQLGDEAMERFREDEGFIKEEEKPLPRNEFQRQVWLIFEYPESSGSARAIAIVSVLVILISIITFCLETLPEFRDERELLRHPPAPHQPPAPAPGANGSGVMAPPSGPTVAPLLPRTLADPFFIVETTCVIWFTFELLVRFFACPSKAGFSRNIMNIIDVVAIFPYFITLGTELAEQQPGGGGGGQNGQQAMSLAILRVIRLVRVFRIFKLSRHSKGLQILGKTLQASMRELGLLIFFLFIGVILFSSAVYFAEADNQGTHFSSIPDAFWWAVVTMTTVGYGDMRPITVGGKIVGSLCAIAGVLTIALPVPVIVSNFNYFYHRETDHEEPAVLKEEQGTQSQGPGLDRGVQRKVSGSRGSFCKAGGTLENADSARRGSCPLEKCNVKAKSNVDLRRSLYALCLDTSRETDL
row,IC50,SMILES
1,1.4 µM,COc1ccc(S(=O)(=O)NCc2ccccc2-c2ccccc2C(=O)N[C@@H](CC(C)C)C(=O)NCC(F)(F)F)cc1 [13 h]
2,1.2 µM,CC(C)NC(=O)C(Cc1ccccn1)NC(=O)c1ccccc1-c1ccccc1CNC(=O)OCc1ccccc1 (stereo not shown) [13 i]
3,3.6 µM,Cc1ccccc1CCC(=O)NCc1ccccc1-c1ccccc1C(=O)NCc1ccc(F)cc1F [14 a]
4,2.7 µM,O=C(CCc1ccc(F)cc1)NCc1ccccc1-c1ccccc1C(=O)NCc1ccc(F)cc1F [14 b]
5,2 µM,O=C(CCc1ccc(O)cc1)NCc1ccccc1-c1ccccc1C(=O)NCc1ccc(F)cc1F [14 d]
6,0.8 µM,COc1ccc(CCC(=O)NCc2ccccc2-c2ccccc2C(=O)NCc2ccc(F)cc2F)cc1 [14 e]
7,2.5 µM,O=C(CCc1ccc(F)c(F)c1)NCc1ccccc1-c1ccccc1C(=O)NCc1ccc(F)cc1F [14 f]
8,3.1 µM,COc1ccc(-c2ccccc2CNC(=O)OC(C)(C)C)c(C(=O)NCCC(C)C)c1 [15 b]
9,5.2 µM,CC(C)CCNC(=O)c1cc(O)ccc1-c1ccccc1CNC(=O)OCc1ccccc1 [16 b]
10,2.1 µM,CC(C)CCNC(=O)c1ccccc1-c1ccccc1[C@@H](C)NC(=O)OCc1ccccc1 [17 c]
11,1.3 µM,CC(C)CCNC(=O)c1ccccc1-c1ccccc1[C@H](C)NC(=O)OCc1ccccc1 [17 d]
12,1.8 µM,CC(C)CCNC(=O)c1ccccc1-c1ccccc1[C@H](C)NC(=O)O[C@@H](C)c1ccccc1 [17 e]
13,7.2 µM,CC(C)CCC(=O)NCc1ccccc1-c1ccccc1C(=O)NCC1CC1 [18 a]
14,0.4 µM,COCCCNC(=O)c1ccccc1-c1ccccc1CNC(=O)OCc1ccccc1 [18 aa]
15,1.1 µM,COc1ccc(CC(=O)NCc2ccccc2-c2ccccc2C(=O)NC(C)CC(C)C)cc1 (stereo not shown) [18 ab]
16,10 µM,CC[C@@H](C)OC(=O)NCc1ccccc1-c1ccccc1C(=O)NCc1cccc(C)n1 [18 ac]
17,5.8 µM,COc1ccc(CC(=O)NCc2ccccc2-c2ccccc2C(=O)NCc2nc3ccccc3[nH]2)cc1 [18 af]
18,2.1 µM,O=C(NCc1ccccc1-c1ccccc1C(=O)NCc1nc2ccccc2[nH]1)OCc1ccccc1 [18 ah]
19,6.6 µM,CN(C)c1ccc(CNC(=O)c2ccccc2-c2ccccc2CNC(=O)OCc2ccccc2)cc1 [18 ai]
20,0.4 µM,C[C@H](CC(=O)NCc1ccccc1-c1ccccc1C(=O)NCC1CC1)c1ccccc1 [18 b]

row,IC50,SMILES
1,4.2 µM,CC(C)CCNC(=O)c1ccccc1-c1ccccc1CNC(=O)COc1ccccc1 [18 c]
2,0.4 µM,CC(C)CCNC(=O)c1ccccc1-c1ccccc1CNC(=O)C[C@@H](C)c1ccccc1 [18 d]
3,1.7 µM,CC(C)CCC(=O)NCc1ccccc1-c1ccccc1C(=O)NCc1ccc(F)cc1F [18 e]
4,1.3 µM,C[C@H](CC(=O)NCc1ccccc1-c1ccccc1C(=O)NCc1ccncc1)c1ccccc1 [18 f]
5,3.9 µM,CCC(C)CC(=O)NCc1ccccc1-c1ccccc1C(=O)NCc1ccccn1 (stereo not shown) [18 g]
6,0.8 µM,C[C@H](CC(=O)NCc1ccccc1-c1ccccc1C(=O)NCCc1ccncc1)c1ccccc1 [18 h]
7,0.4 µM,C[C@H](CC(=O)NCc1ccccc1-c1ccccc1C(=O)NCCc1cccnc1)c1ccccc1 [18 i]
8,0.7 µM,Cc1cccc(CNC(=O)c2ccccc2-c2ccccc2CNC(=O)C[C@@H](C)c2ccc([N+](=O)[O-])cc2)n1 [18 j]
9,3 µM,O=C(Cc1ccc(F)cc1)NCc1ccccc1-c1ccccc1C(=O)Nc1ccc(F)cc1 [18 k]
10,2.1 µM,CCCC(C)OC(=O)NCc1ccccc1-c1ccccc1C(=O)NCC1CC1 (stereo not shown) [18 m]
11,0.4 µM,C[C@H](O)CNC(=O)c1ccccc1-c1ccccc1CNC(=O)O[C@@H](C)c1ccccc1 [18 n]
12,3.6 µM,CC(C)CCNC(=O)c1ccccc1-c1ccccc1CNC(=O)OCC1CC1 [18 o]
13,3.2 µM,O=C(NCc1ccccc1-c1ccccc1C(=O)NCc1cccnc1)OCCc1ccccc1 [18 q]
14,0.9 µM,C[C@H](OC(=O)NCc1ccccc1-c1ccccc1C(=O)NCCc1cccnc1)c1ccccc1 [18 s]
15,1.1 µM,O=C(Cc1ccc(F)cc1)NCc1ccccc1-c1ccccc1C(=O)NCc1ccc(F)cc1F [18 u]
16,5.4 µM,O=C(Cc1ccc(O)cc1)NCc1ccccc1-c1ccccc1C(=O)NCc1ccc(F)cc1F [18 w]
17,4.6 µM,COc1ccc(CC(=O)NCc2cccc(C)c2-c2c(C)cccc2C(=O)NCCC(C)C)cc1 [18 x]
18,1.9 µM,COc1ccc(CC(=O)NCc2ccccc2-c2ccccc2C(=O)NCCCOC(C)C)cc1 [18 y]
19,1.2 µM,COc1ccc(CC(=O)NCc2ccccc2-c2ccccc2C(=O)NC2CCCC2)cc1 [18 z]

# System: not given
# Assay: not given
row,melting point,SMILES
1,145 °C,"O=C(NCCc1ccccc1)c1ccccc1-c1ccccc1CNS(=O)(=O)c1cccc(C(F)(F)F)c1 [Example 3 a, 2′-(3-Trifluoromethylphenylsulfonylaminomethyl)biphenyl-2-carboxylic acid phenethylamide]"
2,145 °C,"CC(=O)c1ccc(S(=O)(=O)NCc2ccccc2-c2ccccc2C(=O)NCCc2ccccc2)cc1 [Example 3 b, 2′-(4-Acetylphenylsulfonylaminomethyl)biphenyl-2-carboxylic acid phenethylamide]"
3,145 °C,"O=C(NCCc1ccccc1)c1ccccc1-c1ccccc1CNS(=O)(=O)c1cccc([N+](=O)[O-])c1 [Example 3 c, 2′-(3-Nitrophenylsulfonylaminomethyl)biphenyl-2-carboxylic acid phenethylamide]"
4,154 °C,"O=C(NCCc1ccccc1)c1ccccc1-c1ccccc1CNS(=O)(=O)c1ccccc1 [Example 3 d, 2′-(Phenylsulfonylaminomethyl)biphenyl-2-carboxylic acid phenethylamide]"
5,153 °C,"O=C(NCCc1ccccc1)c1ccccc1-c1ccccc1CNS(=O)(=O)c1cccc(F)c1 [Example 3 e, 2′-(3-Fluorophenylsulfonylaminomethyl)biphenyl-2-carboxylic acid phenethylamide]"
6,163 °C,"CCc1ccc(S(=O)(=O)NCc2ccccc2-c2ccccc2C(=O)NCCc2ccccc2)cc1 [Example 3 f, 2′-(4-Ethylphenylsulfonylaminomethyl)biphenyl-2-carboxylic acid phenethylamide]"
7,126 °C,"O=C(NCc1ccccc1)c1ccccc1-c1ccccc1CNS(=O)(=O)c1cccc(C(F)(F)F)c1 [Example 3 g, 2′-(3-Trifluoromethylphenylsulfonylaminomethyl)biphenyl-2-carboxylic acid benzylamide]"
8,182 °C,"CC(=O)c1cccc(S(=O)(=O)NCc2ccccc2-c2ccccc2C(=O)NCc2ccccc2)c1 [Example 3 h, 2′-(3-Acetylphenylsulfonylaminomethyl)biphenyl-2-carboxylic acid benzylamide]"
9,175 °C,"O=C(NCc1ccccc1)c1ccccc1-c1ccccc1CNS(=O)(=O)c1cccc([N+](=O)[O-])c1 [Example 3 i, 2′-(3-Nitrophenylsulfonylaminomethyl)biphenyl-2-carboxylic acid benzylamide]"
10,162 °C,"O=C(NCc1ccccc1)c1ccccc1-c1ccccc1CNS(=O)(=O)c1ccccc1 [Example 3 j, 2′-(3-Phenylsulfonylaminomethyl)biphenyl-2-carboxylic acid benzylamide]"
11,147 °C,"O=C(NCc1ccccc1)c1ccccc1-c1ccccc1CNS(=O)(=O)c1cccc(F)c1 [Example 3 k, 2′-(3-Fluorophenylsulfonylaminomethyl)biphenyl-2-carboxylic acid benzylamide]"
12,127 °C,"CC(C)CCNC(=O)c1ccccc1-c1ccccc1CNS(=O)(=O)c1ccccc1 [Example 3 l, 2′-(Phenylsulfonylaminomethyl)biphenyl-2-carboxylic acid (3-methyl butyl)amide]"
13,149 °C,"CC(C)CCNC(=O)c1ccccc1-c1ccccc1CNS(=O)(=O)c1ccc(F)cc1 [Example 3 m, 2′-(4-Fluorophenylsulfonylaminomethyl)biphenyl-2-carboxylic acid (3-methylbutyl)amide]"
14,141 °C,"CC(C)CCNC(=O)c1ccccc1-c1ccccc1CNS(=O)(=O)c1cccc(F)c1 [Example 3 n, 2′-(3-Fluorophenylsulfonylaminomethyl)biphenyl-2-carboxylic acid (3-methylbutyl)amide]"
15,131 °C,O=C(NCCc1ccccn1)c1ccccc1-c1ccccc1CNS(=O)(=O)c1ccccc1 [Example 3 p]
16,130 °C,"O=C(NCCc1ccccn1)c1ccccc1-c1ccccc1CNS(=O)(=O)c1ccc(F)cc1 [Example 3 q, 2′-(4-Fluorophenylsulfonylaminomethyl)biphenyl-2-carboxylic acid 2-(2-pyridyl)ethylamide]"
17,123 °C,"O=C(NCCc1ccccn1)c1ccccc1-c1ccccc1CNS(=O)(=O)c1cccc(F)c1 [Example 3 r, 2′-(3-Fluorophenylsulfonylaminomethyl)biphenyl-2-carboxylic acid 2-(2-pyridyl)ethylamide]"
18,147 °C,"CC(C)CCNC(=O)c1ccccc1-c1ccccc1CNC(=O)c1ccccc1 [Example 4 a, 2′-(Benzoylaminomethyl)biphenyl-2-carboxylic acid (3-methylbutyl)amide]"

row,SMILES,melting point
1,"CC(C)CCNC(=O)c1ccccc1-c1ccccc1CNC(=O)OCc1ccccc1 [Example 2 b, 2′-(Benzyloxycarbonylaminomethyl)biphenyl-2-carboxylic acid (3-methylbutyl)amide]",112 °C
